Read-outs that look alike come from different tables or passages of the source. Where only a bound is given, the exact number is not on record here.

The test system of one series is Parental Ba/F3 cells. The series is described as follows: In vitro viability / Ba/F3 cellular proliferation assay, parental cells. The format is cell-based. Conditions: Mus musculus; for IC50: BaF3.
Another series concerns EML4-ALK S1206R tumors. Nature of the series: Pharmacodynamics: p-ALK in EML4-ALK S1206R tumors in vivo. More on the design: species or system mice. Conditions: sustained for 24 hrs after single dose of 50 mg/kg. The protocol:
Calibration standards were prepared in blank mouse plasma.

Series [1] relates to Ba/F3 EML4-ALK S1206R tumors. Nature of the series: In vivo efficacy, xenograft of Ba/F3 cells expressing EML4-ALK S1206R. More on the design: species or system SCID Beige mice. Conditions: 75 mg/kg, once daily oral gavage.
In series [2] the test system is Ba/F3 cells expressing native EML4-ALK. Nature of the series: Accelerated in vitro mutagenesis screen.
For series [3], the system named is Ba/F3 EML4-ALK G1269S tumors. The series is described as follows: In vivo efficacy, xenograft of Ba/F3 cells expressing EML4-ALK G1269S. Conditions: 50 and 75 mg/kg, once daily oral gavage. Set-up: species or system SCID Beige mice.
For series [4], the target named is Ba/F3 cells expressing EML4-ALK 1151 T insertion (Homo sapiens, UniProt Q9UM73, DUP1151-1151). Nature of the series: Ba/F3 cellular proliferation assay, EML4-ALK 1151 T insertion. Conditions: Table 2.
For series [5] the following is noted: clinical, at MTD; cited from earlier work.
The mark [6] stands for this setting: Table 2, Ba/F3 parental, read-out: IC50.

As to `CCc1cc2c(cc1N1CCC(N3CCOCC3)CC1)C(C)(C)c1[nH]c3cc(C#N)ccc3c1C2=O` [CH5424802], the IC50 with Parental Ba/F3 cells (setting [6]) is above 10 µM.
With `COc1cc(N2CCC(N3CCN(C)CC3)CC2)ccc1Nc1ncc(Cl)c(Nc2ccccc2P(C)(C)=O)n1` [Compound 1], the p-ALK inhibition in the series on EML4-ALK S1206R tumors was 40-60%. The “tumor response in xenograft” value is given as “tumor growth inhibition” in series [1] and “complete tumor regression” in series [3]. Moreover, in series [2] (at 500 nM (S1206R)), the mutations recovered entry is “only one”. The “concentration that completely suppressed the emergence of resistance” value in series [2] (mutagenesis screen) was determined as 1000 nM. Also, in series [2] (number of different mutants), the “mutants recovered in the screen” value is recorded as “ten”. Moreover, the IC50 in the series on Parental Ba/F3 cells (Table 1, Parental Ba/F3 (IL-3), 72 h, n = 5, read-out: IC50s) was found to be 2.19 ± 0.41 µM; in the series on Parental Ba/F3 cells (setting [6]), 4.58 ± 1.55 µM.
Take `COc1cc(N2CCC(N3CCN(C)CC3)CC2)ccc1Nc1ncnc(Nc2ccccc2S(=O)(=O)C(C)C)n1` [ASP3026]: the IC50 in series [4] was 5.94 ± 2.28 µM; in the series with Parental Ba/F3 cells (setting [6]), above 10 µM.
As for `C[C@@H](Oc1cc(-c2cnn(C3CCNCC3)c2)cnc1N)c1c(Cl)ccc(F)c1Cl` [crizotinib], in series [5], the “median Ctrough” value was around 225 ng/mL. The inhibition at […] with Parental Ba/F3 cells (BaF3, read-out: inhibition of parental Ba/F3 cell proliferation) is above 90%. In the series with Parental Ba/F3 cells (setting [6]), the IC50 was 2.06 ± 0.373 µM.
